The source of these data is ChEMBL document CHEMBL1201862, “PubChem BioAssay data set” (2004).

Among the test systems are A549; CAKI-1; CCRF-CEM; HCT-15; HOP-62; HT-29; K562; KM12; MOLT-4; RPMI-8226; SF-539; SNB-75; U-251; UACC-62; IGROV-1; NCI-H23; A498.
Holding throughout (test): DTP human tumour cell line panel, 48 h

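Step 1: Grow cells in 96-well plates. Step 2: Expose to compound for 48 hours at 5 concentrations. Step 3: Interpolate endpoints linearly; if unreached, use highest concentration. The concentration for 50% growth inhibition is given as GI50.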 Calls of active or inactive are those of the source. No stated cut-off is given here; in the data, active = GI50 up to about 1.1 µM and inactive = higher.

On to `CC(C)CCC[C@@H](C)C1CCC2[C@@H]3CC=C4C[C@@H](OC(=O)CCC(=O)NCC[N+](C)(C)CCCS(=O)(=O)[O-])CC[C@]4(C)C3CC[C@@]21C` (stereo partly specified), for which the GI50 was 17.6 µM (inactive) in the assay on A549; 40.7 µM (inactive) with CAKI-1; 23.5 µM (inactive) with CCRF-CEM; 15.4 µM in the assay on HCT-15; 17.6 µM (inactive) with HOP-62; 26.7 µM (inactive) with HT-29. Moreover, the GI50 is 18.9 µM (inactive) in the assay with K562; 20.5 µM (inactive) with KM12; 19.1 µM (inactive) in the assay with MOLT-4; 20 µM (inactive) in the assay on RPMI-8226; 16.7 µM (inactive) in the assay with SF-539; 21.1 µM (inactive) in the assay on SNB-75. Also, the values for the GI50 in the assay with U-251 and in the assay with UACC-62 were 18.3 µM (inactive) and 26.3 µM (inactive), respectively.

As to `CC(=O)OC1CC2Oc3ccc(C)cc3C(C)(O2)C1=O` (stereo unspecified), the GI50 in the assay on A549 is > 100 µM (inactive); with CCRF-CEM, > 100 µM (inactive); in the assay on HCT-15, above 100 µM; in the assay with HOP-62, > 100 µM (inactive); in the assay on HT-29, > 100 µM (inactive); in the assay on IGROV-1, > 100 µM (inactive). The GI50 in the assay on K562, in the assay with KM12, in the assay with MOLT-4, in the assay on NCI-H23, in the assay with RPMI-8226 and with SF-539 was > 100 µM (inactive) each time. In addition, the GI50 was 51.1 µM (inactive) in the assay with SNB-75, > 100 µM (inactive) in the assay with U-251 and > 100 µM (inactive) in the assay with UACC-62.

For the compound `CCC1=C(C)/C(=C/c2[nH]c(C(Br)Br)c(CC)c2C)N=C1C(Br)Br`, the GI50 in the assay on A549 is 25.2 µM (inactive); in the assay with CCRF-CEM, 13.6 µM (inactive); with HCT-15, 28.2 µM; in the assay with HOP-62 it was 28.6 µM (inactive); in the assay with HT-29 it was 28.5 µM (inactive); in the assay on IGROV-1 it was 23.9 µM (inactive). Further, the GI50 with K562 is 24.2 µM (inactive); in the assay with KM12, 19.1 µM (inactive); in the assay on MOLT-4, 5.93 µM (inactive); in the assay on NCI-H23 it was 32.4 µM (inactive); in the assay with RPMI-8226, 9.68 µM (inactive); with SF-539 it was 53 µM (inactive). For the same compound, the figures for the GI50 in the assay with SNB-75, in the assay with U-251 and in the assay on UACC-62 were 21.6 µM (inactive), 22.5 µM (inactive) and 31 µM (inactive), respectively.

Consider `CCc1nnc(S)n1/N=C/c1ccc(-c2ccc([N+](=O)[O-])cc2)o1`, for which the GI50 is > 100 µM (inactive) with A549; > 100 µM (inactive) in the assay with CAKI-1; above 100 µM in the assay on HCT-15; > 100 µM (inactive) with HOP-62; > 100 µM (inactive) in the assay on HT-29; > 100 µM (inactive) with IGROV-1. The GI50 with K562, with KM12, with MOLT-4, with NCI-H23, in the assay on RPMI-8226 and with SF-539 was > 100 µM (inactive) in each case. Also, the GI50 in the assay on SNB-75, in the assay with U-251 and in the assay with UACC-62 was > 100 µM (inactive) each time.

Turning to `COC(=O)C1=C(C(=O)OC)C2(C)Nc3ccccc3C2=C(c2ccccc2)C1` (stereo unspecified), the GI50 in the assay with A549 was 20.4 µM (inactive); with CCRF-CEM, 19.4 µM (inactive); in the assay on HCT-15, 20.8 µM; with HOP-62, 22.4 µM (inactive); in the assay with HT-29, 27.7 µM (inactive); in the assay with IGROV-1 it was 22.1 µM (inactive). In addition, the GI50 in the assay with K562 is 16.1 µM (inactive); with KM12 it was 13.5 µM (inactive); in the assay on MOLT-4, 11.9 µM (inactive); in the assay with NCI-H23, 19 µM (inactive); with RPMI-8226 it was 10.4 µM (inactive); in the assay on SF-539, 17.1 µM (inactive). The GI50 with SNB-75 is 2.13 µM (inactive); in the assay on U-251, 19.8 µM (inactive); in the assay on UACC-62, 16.7 µM (inactive).

With `O=c1cc(-c2ccccc2)oc2cc(OCC(O)COc3ccc4c(=O)cc(-c5ccccc5)oc4c3)ccc12`, the GI50 in the assay on A498 was > 100 µM (inactive); in the assay on A549 it was > 100 µM (inactive); in the assay on CAKI-1 it was > 100 µM (inactive); in the assay with CCRF-CEM, 33 µM (inactive); in the assay on HCT-15, 89.1 µM; in the assay on HOP-62, 8.43 µM (inactive). Besides, the GI50 with HT-29 was > 100 µM (inactive); in the assay with IGROV-1, > 100 µM (inactive); in the assay on K562, 42.8 µM (inactive); in the assay on KM12, > 100 µM (inactive); in the assay on MOLT-4, 40.2 µM (inactive); with NCI-H23, 43.9 µM (inactive). Besides, the GI50 in the assay on RPMI-8226 is > 100 µM (inactive); in the assay with SF-539, 22.4 µM (inactive); in the assay on U-251 it was 20.8 µM (inactive); in the assay on UACC-62, > 100 µM (inactive).

`O=C(OC1CC(n2cc(F)c(=O)[nH]c2=O)OC1CSC(=O)c1ccccc1)c1ccccc1` (stereo unspecified): the GI50 in the assay on A498 was 41.6 µM (inactive); in the assay with A549, 29.2 µM (inactive); with CCRF-CEM, 37.2 µM (inactive); with HCT-15, 34.2 µM; in the assay with HOP-62 it was 51.3 µM (inactive); in the assay on HT-29, 17.8 µM (inactive). Also, the GI50 in the assay on IGROV-1 is 56.2 µM (inactive); in the assay on K562, 54.3 µM (inactive); in the assay on KM12, 27.4 µM (inactive); in the assay on MOLT-4, 25.7 µM (inactive); in the assay on NCI-H23 it was 26.4 µM (inactive); with RPMI-8226 it was 22.5 µM (inactive). For the same compound, the GI50 with SF-539 is 36.5 µM (inactive); with SNB-75, 19.4 µM (inactive); in the assay with U-251 it was 17.6 µM (inactive); in the assay on UACC-62, 36.4 µM (inactive).

For the compound `CCCCSC1CCSc2c1ccc1ccccc21` (stereo unspecified), the GI50 in the assay on A549 is 77.8 µM (inactive); with CAKI-1 it was > 100 µM (inactive); with HCT-15, 6.32 µM; in the assay on HOP-62, > 100 µM (inactive); with HT-29, 71.6 µM (inactive); in the assay with IGROV-1 it was > 100 µM (inactive). The GI50 with K562 was 44.9 µM (inactive); in the assay with KM12, > 100 µM (inactive); in the assay on MOLT-4, 34.3 µM (inactive); with NCI-H23 it was > 100 µM (inactive); with RPMI-8226 it was > 100 µM (inactive); in the assay on SF-539 it was > 100 µM (inactive). The GI50 with U-251 and in the assay with UACC-62 was > 100 µM (inactive) throughout.

Regarding `CC12CCC(=O)N1c1cc([N+](=O)[O-])ccc1N2` (stereo unspecified), the GI50 was > 100 µM (inactive) with A498; > 100 µM (inactive) with A549; > 100 µM (inactive) with CCRF-CEM; above 100 µM in the assay on HCT-15; > 100 µM (inactive) with HOP-62; > 100 µM (inactive) in the assay with HT-29. For the same compound, the GI50 in the assay with IGROV-1, in the assay with K562, in the assay on KM12, in the assay with MOLT-4, in the assay with NCI-H23 and in the assay on RPMI-8226 was > 100 µM (inactive) in each case. Besides, the GI50 with SF-539, in the assay with SNB-75, with U-251 and in the assay on UACC-62 was > 100 µM (inactive) throughout.
